Measurements as given in US7910622B2, “Modulation of bacterial quorum sensing with synthetic ligands” (Wisconsin Alumni Research Foundation, priority 2007, dated 2011).
“And” between values parts separate entries of the source, which are not always exact repeats. Identical values can stand only once. Like-named read-outs stand apart in the source and are kept apart here. Marks after values point to notes of the source that are not given here.

Experiments:
Experiment in all cases: cell-based
LuxR [1] = target: T1, LuxR (Aliivibrio fischeri, UniProt P35327); parameters: species or system Vibrio fischeri; conditions: V. fischeri ES114 (Δ-luxI), normalized to OHHL; for activation at 200 µM: read-out: V. fischeri-LuxR Activation [%], 200 μM ligand; for V. fischeri-LuxR Activation [%]: 200 μM ligand
T1 construct: a Δ-luxI derivative of V. fischeri ES114, in which the native lux operon behaves as the bioluminescent reporter; endogenous in cells; host or cells: V. fischeri ES114 (Δ-luxI)
T1 sequence (P35327 whole entry): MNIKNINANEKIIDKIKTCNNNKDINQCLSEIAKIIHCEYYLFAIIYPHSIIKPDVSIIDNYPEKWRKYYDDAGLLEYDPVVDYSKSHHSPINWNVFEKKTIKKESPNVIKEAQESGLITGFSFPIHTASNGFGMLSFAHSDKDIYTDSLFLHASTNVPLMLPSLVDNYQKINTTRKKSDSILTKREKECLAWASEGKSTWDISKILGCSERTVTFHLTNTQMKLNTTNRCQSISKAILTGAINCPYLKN
Protocol: Luminescence assays. For agonism assays, an appropriate amount of AHL stock solution was added into a 96-well plate. An overnight culture of E. coli or V. fischeri was diluted 1:10 with appropriate media (LB plus 10 μg/mL tetracycline for E. coli; LBS for V. fischeri). A 200-μL portion of the diluted culture was added to each well of the plate. Plates were grown for 4-8 h with shaking (200 rpm; 30° C. for E. coli and RT for V. fischeri). Luminescence was measured using a multilabel plate reader and normalized to cell density. […] All assays were performed in triplicate. Graphpad Prism software was used to calculate IC50 and EC50 values.
Vibrio fischeri assay procedures. […] An overnight culture of V. fischeri ES114 (WT, Δ-luxI or Δ-luxR) was diluted 1:10 with LBS medium. A-200 μL portion of the diluted culture was added to each well of the plate. Plates were grown at RT with shaking (200 rpm) until the OD600=0.35-0.4 (4-6 h). Luminescence then was measured and normalized to cell density per well. […] All assays were performed in triplicate. IC50 and EC50 values were calculated using GraphPad Prism software using a sigmoidal curve fit.
(§1) V. fischeri reporter gene assay protocols. […] An overnight culture of V. fischeri ES114 (D-luxI) was diluted 1:10 with LBS medium. A 200-μL portion of the diluted culture was added to each well of the multititer plate. Plates were grown at RT with shaking (200 rpm) until the OD600=0.35-0.4 (4-6 h). Luminescence then was measured and normalized to cell density per well.
(§2) Dose response reporter gene assays. […] IC50 and EC50 values were calculated using GraphPad Prism software (v. 4.0) using a sigmoidal curve fit.
as §1, with “(Δ-luxI)” for “(D-luxI)”, “A200 μL” for “A 200-μL”, “incubated” for “grown”, “RT” for “RT with shaking (200 rpm)”
as §2

TraR = target: T2, TraR (Agrobacterium tumefaciens, UniProt P33905); conditions: for activation at 10 µM: read-out: A. tumefaciens-TraR Activation [%]; for inhibition at 10 µM: read-out: A. tumefaciens-TraR Inhibition [%], 10 μM synthetic ligand against 100 nM OOHL; for inhibition at 10 µM / A. tumefaciens-TraR Activation [%] / A. tumefaciens-TraR Inhibition [%]: A. tumefaciens WCF47 (pCF372), normalized to OOHL; for A. tumefaciens-TraR Activation [%]: 10 μM ligand; for A. tumefaciens-TraR Inhibition [%]: 10 μM synthetic ligand against 100 nM OOHL
T2 construct: These strains lack their AHL synthase (I) genes, but retain their native R genes; endogenous in cells; host or cells: A. tumefaciens WCF47 (Δ-traI) with PtraI-lacZ plasmid pCF372
T2 sequence (P33905 whole entry): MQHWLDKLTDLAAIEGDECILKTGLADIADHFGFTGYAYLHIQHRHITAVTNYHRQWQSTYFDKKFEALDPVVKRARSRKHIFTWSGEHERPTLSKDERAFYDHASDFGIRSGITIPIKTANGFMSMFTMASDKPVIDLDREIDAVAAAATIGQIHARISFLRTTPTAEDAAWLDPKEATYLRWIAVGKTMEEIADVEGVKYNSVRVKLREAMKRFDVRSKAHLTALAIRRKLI
Protocol: A. tumefaciens reporter gene assay protocols. […] An overnight culture of A. tumefaciens WCF47 (pCF372) was diluted to an OD600 of 0.1 in fresh AB minimal medium containing 400 μg/mL octopine and 50 μg/mL streptomycin. A 200 μL-portion of the diluted culture was added to each well of the multititer plate containing AHLs. Plates were grown at 28° C. for 18-20 h in a rotary shaking incubator (200 rpm). The cultures were then assayed for β-galactosidase activity following the Miller assay method. Briefly, 200 μL aliquots of bacteria from each of the wells were added to wells of a polystyrene 96-well plate and the OD600 of each well was recorded. Next, 50 μL aliquots from each well were transferred to a solvent resistant 96-well plate containing 200 μL Z buffer, 8 μL CHCl3 and 4 μL 0.1% aq. sodium dodecylsulfate (SDS). This suspension was mixed via repetitive pipetting, after which the CHCl3 was allowed to settle. A 100-μL aliquot from each well was transferred to a fresh polystyrene 96-well plate, and 20 μL of substrate, o-nitrophenyl-β-D-galactopyranoside (ONPG, 4 μg/mL in phosphate buffer), was added at time zero. After the development of appropriate yellow color (ca. 15-35 min), the reaction was terminated by the addition of 50 μL of 1 M Na2CO3. Absorbance at 420 nm and 550 nm was measured for each well using a plate reader, and Miller units were calculated according to standard methods.
as §2
A. tumefaciens reporter gene assay protocols. […] An overnight culture of A. tumefaciens WCF47 (pCF372) was diluted 1:10 with fresh AB minimal medium containing 400 μg/mL octopine and 50 μg/mL streptomycin. A 200 μL portion of the diluted culture was added to each well of the multititer plate containing AHLs. Plates were incubated at 28° C. for 18-24 h. The cultures were then assayed for β-galactosidase activity following the Miller assay method. Briefly, 200 μL aliquots of bacteria from each of the wells were added to wells of a 96-well multititer plate, and the OD600 of each well was recorded. Next, 50 μL aliquots from each well were transferred to a solvent resistant 96-well multititer plate containing 200 μL Z buffer, 8 μL CHCl3 and 4 μL 0.1% aq. SDS. This suspension was mixed via repetitive pipetting, after which the CHCl3 was allowed to settle. A 100 μL aliquot from each well was transferred to a fresh 96-well multititer plate, and 20 μL of substrate, o-nitrophenyl-β-D-galactopyranoside (ONPG, 4 μg/mL in phosphate buffer), was added at time zero. After the development of appropriate yellow color (ca. 20-30 min), the reaction was terminated by the addition of 50 μL of 1 M Na2CO3. Absorbances at 420 nm and 550 nm were measured for each well using a plate reader, and Miller units were calculated according to standard methods.
as §2

LasR [2] = target: T3, LasR (Pseudomonas aeruginosa, UniProt P25084); type: cell-based; conditions: for inhibition at 5 µM: read-out: E. coli-LasR Inhibition [%], 5 μM synthetic ligand against 7.5 nM OdDHL; for inhibition at 5 µM / E. coli-LasR Inhibition [%]: E. coli DH5α (pJN105L pSC11), normalized to OdDHL; for E. coli-LasR Inhibition [%]: 5 μM synthetic ligand against 7.5 nM OdDHL
T3 construct: expressed in transfected cells; host or cells: E. coli DH5α (pJN105L pSC11), arabinose-induced
T3 sequence (P25084 whole entry): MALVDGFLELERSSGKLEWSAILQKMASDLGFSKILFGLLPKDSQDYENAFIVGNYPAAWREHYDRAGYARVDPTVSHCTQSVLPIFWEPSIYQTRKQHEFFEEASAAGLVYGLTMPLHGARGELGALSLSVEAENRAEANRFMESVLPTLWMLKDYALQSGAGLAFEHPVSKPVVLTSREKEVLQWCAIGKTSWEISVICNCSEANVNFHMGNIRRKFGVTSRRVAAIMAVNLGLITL
Protocol: (§3) E. coli LasR reporter gene assay protocols. […] An overnight culture of E. coli DH5a (pJN105L pSC11) grown at 37° C. was subculture by diluting 1/10 in fresh LB medium containing 100 μg/mL ampicillin and 15 μg/mL gentamicin and shaking at 37° C. until OD600=0.3. Arabinose (4 mg/mL) was then added to induce the LasR promoter and a 200 μL-portion of this culture was added to each well of the multititer plate containing AHLs. Plates were grown at 37° C. for 2 hours in a rotary shaking incubator (200 rpm; OD600=0.45). The cultures were then assayed for activity following the identical β-galactosidase assay protocols used in the A. tumefaciens reporter gene assays.
as §2
(§4) E. coli LasR reporter gene assay protocols. […] An overnight culture of E. coli DH5α (pJN105L pSC11) was diluted 1:10 with fresh LB medium containing 100 μg/mL ampicillin and 15 μg/mL gentamicin. This sub-culture was incubated at 37° C. until OD600=0.3 (4-6 h). Arabinose (4 mg/mL) was then added to induce the LasR promoter, and a 200 μL portion of this culture was added to each well of the multititer plate containing AHLs. Plates were incubated at 37° C. until OD600=0.45 (4-6 h). The cultures were then assayed for LasR activity following the identical β-galactosidase assay protocols used in the A. tumefaciens reporter gene assays (see above).
as §2

LasR [3] = target: T3, LasR; conditions: for activation at 5 µM: read-out: E. coli-LasR Activation [%], 5 μM ligand; for activation at 5 µM / E. coli-LasR Activation [%]: E. coli DH5α (pJN105L pSC11), normalized to OdDHL; for E. coli-LasR Activation [%]: 5 μM ligand
Protocol: as §3, §2, §4, §2

LuxR [4] = target: T1, LuxR; type: cell-based, Vibrio fischeri; conditions: for inhibition at 5 µM: read-out: V. fischeri-LuxR Inhibition [%], 5 μM synthetic ligand against 5 μM OHHL; for inhibition at 5 µM / V. fischeri-LuxR Inhibition [%]: V. fischeri ES114 (Δ-luxI), normalized to OHHL; for V. fischeri-LuxR Inhibition [%]: 5 μM synthetic ligand against 5 μM OHHL
How it was run: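 Whole-cell luminescence reporter in V. fischeri ES114 (WT, Δ-luxI or Δ-luxR) or E. coli, overnight cultures diluted 1:10 and grown with compound at RT (E. coli 30° C) to OD600 0.35-0.4 (4-6 h). Luminescence normalized to cell density, triplicates; EC50/IC50 from sigmoidal fit.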

Molecule | activation at 200 µM (LuxR [1]) [%] | IC50 (TraR) [nM] | activation at 10 µM (TraR) [%] | inhibition at 10 µM (TraR) [%] | IC50 (LasR [2]) [nM] | LasR: concentration at which the compound elicits its maximal inhibition (value in parentheses) (LasR [2]; against 7.5 nM OdDHL, dose response curve did not reach 100% inhibition) | inhibition at 5 µM (LasR [2]) [%] | EC50 (LasR [3]) [nM] | activation at 5 µM (LasR [3]) [%] | IC50 (LuxR [4]; LuxR IC50, determined against 5 μM OHHL) | inhibition at 5 µM (LuxR [4]) [%] | V. fischeri-LuxR Activation [%] (LuxR [1]) | A. tumefaciens-TraR Activation [%] (TraR) | A. tumefaciens-TraR Inhibition [%] (TraR) | E. coli-LasR Inhibition [%] (LasR [2]) | E. coli-LasR Activation [%] (LasR [3]) | V. fischeri-LuxR Inhibition [%] (LuxR [4]) | IC50 (TraR; determined against 100 nM OOHL, read-out: TraR IC50) [nM] | EC50 (LasR [3]; read-out: LasR EC50) [nM]
CCCCCCCCCC(=O)NC1CCOC1=O (stereo not drawn) [A4, C10 AHL] | 1 | 1050 | 2 | 92 | 250 | (2.0)^f μM | 34 | > 200000 | ≤ 44 | 900 nM and 400 nM | 96 |  |  |  |  |  |  |  | 
2-aminophenol analog of OdDHL [compound 7, reference compound] |  |  |  |  |  |  |  |  |  |  |  | 1 | 0 | 9 | 4% | 18 | 3 |  | 
N-(phenylbutanoyl)-L-homoserine lactone [compound 6, reference compound] |  |  |  |  |  |  |  |  |  |  |  | 3 | 2 | 93 | ~25% and ~20% | 3 | 70 | 1120 | 
O=C(NC1CCOC1=O)c1ccc(N=Nc2ccccc2)cc1 (stereo not drawn) [D20] |  |  |  |  |  |  |  |  |  |  |  | 2 | 0 | 4 | 12% | 0 | 46 |  | 
O=C(CC(=O)N[C@@H]1CCOC1=O)Cc1ccccc1 [B2] |  |  |  |  |  |  |  |  |  |  |  | 3 | 2 | 50 | −7% | 84 | 46 |  | 540
O=C(Cc1c(F)c(F)c(F)c(F)c1F)N[C@H]1CCOC1=O [B19, pentafluoroaromatic PHL] |  |  |  |  |  |  |  |  |  |  |  | 2 | 0 | 2 | 19% | 2 | 40 |  | 
O=C(Cc1ccc([N+](=O)[O-])cc1)NC1CCOC1=O (stereo not drawn) [B16, 4-nitro PHL] | ~25 | 2250 | 1 | ~90 |  |  | 27 |  | 0 |  | 47 |  |  |  |  |  |  |  | 
O=C(/C=C/c1ccccc1)N[C@H]1CCOC1=O [A19] |  |  |  |  |  |  |  |  |  |  |  | 3 | 3 | 7 | 22% | 2 | 48 |  | 
CCCCCCCCCCCC(=O)N[C@H]1CCOC1=O [A5, C12 AHL] | 2 |  | 1 | 22 |  |  | -10 |  | ~85 |  | 73 |  |  |  |  |  |  |  | 40
CC(C)(C)OC(=O)NCCCCC(=O)N[C@H]1CCOC1=O [A22] |  |  |  |  |  |  |  |  |  |  |  | 2 | 0 | 10 | 15% | 3 | 47 |  | 
4-amino PHL [B26] |  |  |  |  |  |  |  |  |  |  |  | 3 | 0 | 5 | 8% | 0 | 12 |  | 
CCCCCCCCCCCCCCCC(=O)N[C@H]1CCOC1=O [A6] |  |  |  |  |  |  |  |  |  |  |  | 2 | 0 | 0 | 5% | 11 | 27 |  | 
